Test results as given in patent publication USRE42013E1, “Macrocyclic modulators of the ghrelin receptor” (Tranzyme Pharma Inc., priority 2003, dated 2010).
Like-named read-outs stand apart in the source and are kept apart here.

Key:
[1] = from CCC[C@@H](C(=O)N(C)[C@H](C)C(=O)N[C@H](Cc1ccccc1)C(=O)O)N(C[C@@H](C)Oc1ccccc1CCCN)C(=O)OC(C)(C)C; amide bond; DEPBT; THF; 25.0 mM; 25.0 °C; 16.0 h
[2] = biological target: T1, human growth hormone secretagogue receptor (hGHS-R1a) (Homo sapiens, UniProt Q92847); experiment: Competitive radioligand binding assay (ghrelin receptor), [125I]-ghrelin displacement; conditions: read-out: Ki
T1 construct: purchased PerkinElmer BioSignal #RBHGHSM, lot#1887; host or cells: HEK-293, stably transfected

[3] = biological target: human ghrelin receptor (hGHS-R1a) (Homo sapiens, UniProt Q92847); conditions: Table 4; functional (agonist) activity at human ghrelin receptor; TFA salts unless otherwise noted
Text: B. Aequorin Functional Assay (Ghrelin Receptor)
This cell line is typically constructed by transfection of the human ghrelin receptor into CHO-K1 cells co-expressing Gα16 and the mitochondrially targeted Aequorin (Ref #ES-WT-A5). • 1. […] Assay buffer: DMEM (Dulbecco's Modified Eagles Medium) containing 0.1% BSA (bovine serum albumin; pH 7.0). • 3. Coelenterazine (Molecular Probes, Leiden, The Netherlands). Final test concentrations (N=8) for compounds of the invention: 10, 1, 0.3, 0.1, 0.03, 0.01, 0.003, 0.001 μM. Compound Handling
Assay plates were then prepared by appropriate dilution in DMEM medium containing 0.1% BSA. Under these conditions, the maximal final DMSO concentration in the assay was <0.6%.
AequoScreen™ cells were collected from culture plates with Ca^2+ and Mg^2+-free phosphate buffered saline (PBS) supplemented with 5 mM EDTA, pelleted for 2 min at 1000×g, re-suspended in DMEM—Ham's F12 containing 0.1% BSA at a density of 5×10^6 cells/mL, and incubated O/N at rt in the presence of 5 μM coelenterazinc. After loading, cells were diluted with assay buffer to a concentration of 5×10^5 cells/mL.
For agonist testing, 50 μL of the cell suspension was mixed with 50 μL of the appropriate concentration of test compound or ghrelin (reference agonist) in 96-well plates (duplicate samples). Ghrelin (reference agonist) was tested at several concentrations concurrently with the test compounds in order to validate the experiment. The emission of light resulting from receptor activation in response to ghrelin or test compounds was recorded using the Hamamatsu FDSS 6000 reader (Hamamatsu Photonics K.K., Japan).
Analysis and Expression of Results
Results were expressed as Relative Light Units (RLU). […] EC50, Hill slope and % Emax values are reported.
Key Aspects of Method • 1. Assay performed on CHO-K1 cells expressing the transfected, cloned human ghrelin receptor (hGHS-R1a) and Gα16. • 2. Suspended cells incubated O/N with coelenterazine. • 3. Stimulation of hGHS-R1a activates Gα16, causing intercellular Ca2+ release which ultimately leads to the oxidation of coelenterazine and the emission of a quantitative luminescent signal. • 4. Ghrelin was used as the positive control. • 5.

[4] = system: morphine-treated rats; experiment: Gastric emptying and gastrointestinal transit in model of opioid-delayed gastric emptying; format: in vivo, rat (Sprague-Dawley); conditions: 3 mg/kg s.c.
Text: 7. The Effect of Compounds of the Invention on Gastric Emptying and Gastrointestinal Transit in a Model of Opioid-Delayed Gastric Emptying
Opioid analgesics, such as morphine, are well known to delay gastrointestinal transit which is an important side-effect for this class of drugs. The clinical term for this syndrome is opioid bowel dysfunction (OBD). Importantly, patients recovering from abdominal surgery experience post-operative ileus that is further exacerbated by concomitant opioid therapy for post-surgical pain.
• 1. […] Methods • 1. Rats (male, Sprague-Dawley, 250-300 g) are implanted with jugular vein catheters to accommodate dosing of test articles. • 2. Overnight-fasted rats are administered morphine (3 mg/kg s.c.). • 3. […] Radioactivity (^99mTc) in each tissue isolate is measured as a means of measuring the transit of the meal. Results

[5] = system: gastric emptying in fasted rats; experiment: Gastric emptying in fasted rats (phenol red methylcellulose meal); format: in vivo, rat (Wistar)
Procedure: To examine the effects of compounds of the invention in a model for gastroparesis, compounds were evaluated for possible effects on gastric emptying in fasted rats.
GHRP-6 and test samples were dissolved in vehicle of 9% HPBCD/0.9% NaCl. Immediately following oral administration of methylcellulose (2%) containing phenol red (0.05%) (2 mL/rat), test substances or vehicle (9% HPBCD/0.9% NaCl) were each administered intravenously (i.v.) at a dosing volume of 5 mL/kg.
Male Wistar rats were provided by LASCO (A Charles River Licensee Corporation, Taiwan). Space allocation for 6 animals was 45×23×15 cm. Animals were housed in APEC® cages and maintained in a controlled temperature (22° C.-24° C.) and humidity (60%-80%) environment with 12 h light, 12 h dark cycles for at least one week in the laboratory prior to being used. Free access to standard lab chow for rats (Lab Diet, Rodent Diet, PMI Nutrition International, USA) and tap water was granted. All aspects of this work including housing, experimentation and disposal of animals were performed in general accordance with the Guide for the Care and Use of Laboratory Animals (National Academy Press, Washington, D.C., 1996).
Test substances were each administered intravenously to a group of 5 O/N-fasted Wistar derived male rats weighing 200±20 g immediately after methylcellulose (2%) containing phenol red (0.05%) was administered orally at 2 mL/animal. […] Following protein precipitation by 20% trichloroacetic acid (0.5 mL) and re-alkalization of the supernatant with 0.1 N NaOH, total phenol red remaining in the stomach was determined by a colorimetric method at 560 nm. A 30 percent or more (≧30%) increase in gastric emptying, detected as the decrease in phenol red concentration in the stomach relative to the vehicle control group, is considered significant.
• 1. […] Total phenol red remaining in the stomach was quantified by a colorimetric method at 560 nm. • 5. A >30% increase in gastric emptying, detected based on the phenol red concentration in comparison to the control group, is considered significant. […]

[6] = Table 3C, binding activity at the human ghrelin receptor, class symbols
[7] = Table 4, binding at human ghrelin receptor, TFA salts unless otherwise noted

Sequence of human ghrelin receptor (hGHS-R1a) (Q92847 whole entry): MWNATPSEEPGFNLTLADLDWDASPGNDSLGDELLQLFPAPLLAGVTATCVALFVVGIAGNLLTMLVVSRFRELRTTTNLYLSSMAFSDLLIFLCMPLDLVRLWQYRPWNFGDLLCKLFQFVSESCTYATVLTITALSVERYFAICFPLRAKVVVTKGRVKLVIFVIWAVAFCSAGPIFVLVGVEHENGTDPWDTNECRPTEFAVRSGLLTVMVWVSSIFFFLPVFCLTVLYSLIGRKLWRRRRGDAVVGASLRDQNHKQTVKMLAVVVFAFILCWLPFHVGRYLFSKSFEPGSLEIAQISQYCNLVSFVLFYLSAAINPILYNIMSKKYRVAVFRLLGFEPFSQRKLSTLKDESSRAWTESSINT
T1 sequence (Q92847 whole entry): as above

| SMILES | Ki [2, 6] | Ki [2, 7] | EC50 [3] | also measured |
| --- | --- | --- | --- | --- |
| CCC[C@H]1C(=O)N(C)[C@H](C)C(=O)N[C@H](Cc2ccccc2)C(=O)NCCCc2ccccc2O[C@H](C)CN1C(=O)OC(C)(C)C |  |  |  | ring closure, yield of all isomers [1]: 80% |
| C[C@H]1NC(=O)C2(CCCC2)NCCOc2ccccc2C=CCNC(=O)[C@H](Cc2cccc(Cl)c2)NC1=O (stereo in doubt) [compound 351] | 10 to 100 nM | 10 to 100 nM | 1 to 100 nM |  |
| CN1CC[C@]23c4c5ccc(O)c4O[C@H]2[C@@H](O)C=C[C@H]3[C@H]1C5 [Morphine] |  |  |  | gastric emptying and intestinal transit [4]: significantly delayed gastric emptying and intestinal transit |
| O=C1NC/C=C/c2ccccc2OCCNC2(CCCC2)C(=O)NC2(CCCC2)C(=O)N[C@H]1Cc1ccccc1 [compound 18] | 10 to 100 nM | 10 to 100 nM | 1 to 100 nM | Ki ([2]; binding activity at the human ghrelin receptor, [125I]-ghrelin displacement, hGHS-R1a/HEK-293 membranes): 10 to 100 nM |
| CCC(C)C1NCCOc2ccccc2CCCNC(=O)C(Cc2ccc(Cl)cc2)NC(=O)C(C)N(C)C1=O (stereo not drawn) [compound 25] |  |  | 1 to 100 nM | gastric emptying ([5]; 30 μg/kg): demonstrated gastric emptying; increase in gastric emptying relative to the vehicle control group ([5]; 100 μg/kg i.v., fasted rats, 15 min): 39% |
